For orientation: IC50 means the midpoint of a concentration-inhibition curve.

This passage reports IC50 results from patent publication US20230348421A1, “5-HT2A RECEPTOR INHIBITOR OR INVERSE AGONIST, PREPARATION METHOD THEREFOR, AND APPLICATION THEREOF” (GENEORA PHARMA (SHIJIAZHUANG) CO., LTD., priority 2020, published 2023).

Data set [1] addresses T1, 5-HT2A receptor (Homo sapiens (Human), UniProt P28223). Nature of the data set: Screening for 5-HT2A inverse agonistic activity (NIH3T3-5-HT2A R cells, Bright-Glo luciferase, 120 h). The data set is classed as cell-based. The conditions noted are these: NIH3T3-5HT2AR cells, cell inhibition rate. The method, then: • Cell lines: Adherent cells NIH3T3-5-HT2A R • Cell culture medium: DMEM+10% FBS (purchased from GBICO) • Cell culture plate: White-wall clear-bottom 96-well plate (purchased from Perkin Elmer) • Detection kit: Bright-Glo™ Luciferase (purchased from Promega) • Detection instrument: BioTek multifunctional microplate reader
NIH3T3-5HT2AR cells in the logarithmic growth phase were seeded into a white-wall clear-bottom 96-well plate at a density of 1000 cells per well, and cultured overnight in a 37° C., 5% CO2 incubator. […] On the sixth day, a Bright-Glo™ Luciferase reagent with a volume equal to that of cell sap was added to the cells, and the cells were incubated at room temperature in the dark for 20 min. […] The data was processed with GraphPad Prism 7.0 to obtain a cell inhibition rate curve, and the IC50 was calculated.
Cell inhibition rate (%)=[100−(Lum test drug−Lum culture solution)/(Lum cell control−Lum culture solution)×100]%

Data set [2] has as its target T1, 5-HT2A receptor. Kind of data set: Test for 5-HT2A antagonistic activity (calcium ion antagonism, FLIPR, CHO-K1/5-HT2A cells). The format is cell-based. The conditions noted are these: 100 nM a-methyl-5-HT, Ca2+ signal. The method, then:
• Cell lines: CHO-K1/5-HT2A (Chempartner) • Cell culture medium: DMEM/F12+10% FBS (purchased from GBICO) • Cell culture plate: 384-well Assay Plate (purchased from Corning) • Detection kit: FLIPR® Calcium 4 Assay Kit (purchased from Molecular Devices)
After that, centrifugation was performed to remove the culture medium in the cell culture plate. Dye was added, and the cells were incubated in a 37° C., 5% CO2 incubator for another 1 h. The cell culture plate was placed on the FLIPR. A compound to be tested was added, and the Ca^2+ signal was detected, wherein the compound to be tested was subjected to 3-fold gradient dilution with PBS to obtain 10 concentrations, with the highest concentration of 10 uM, and double replicate wells were set up. […] In order to determine the test stability, risperidone was used as a positive control. The data were processed with GraphPad Prism 7.0 to obtain a cell inhibition rate curve, and the IC50 was calculated.
Inhibition rate (%)=100%−[(signal value of the compound to be tested−signal value of the test solution)/(the maximum signal value−the signal value of the test solution)]×100%

The target of data set [3] is hERG potassium channels (Homo sapiens (Human), UniProt Q12809). Nature of the data set: hERG inhibitory activity, whole-cell patch clamp in CHO-hERG cells.
Experimental: • Name: Dimethyl sulfoxide (DMSO)
• Species & strains: CHO-hERG cell lines (Chinese hamster ovary cells stably expressing hERG channels) • Culture medium: 90% F12, 10% fetal bovine serum, 100 μg/mL G418 and 100 μg/mL hygromycin B • Culture conditions: 5% CO2, 37° C. incubator • Freezing conditions: Liquid nitrogen
Digestion was performed at room temperature for 3-5 min. The digestion solution was pipetted, and the cells were resuspended in extracellular fluid and transferred to an experimental dish for electrophysiological recording for later use.
On the day of the test, the compound was diluted with DMSO to an intermediate concentration. 10 μL of compound with the intermediate concentration was taken, transferred to 4990 μL of extracellular fluid, and subjected to 500-fold dilution to obtain a final concentration to be tested.
CHO (Chinese Hamster Ovary) cells stably expressing hERG potassium channels were taken, and hERG potassium channel currents were recorded at room temperature by means of a whole-cell patch-clamp technique. A glass microelectrode was formed by pulling a glass electrode blank (BF150-86-10, Sutter) with a glass microelectrode puller. The tip resistance was about 2-5 MΩ after perfusion of a pippette solution. The glass microelectrode could be connected to a patch clamp amplifier by inserting the glass microelectrode into an amplifier probe. Clamping voltages and data recording were controlled and recorded by a computer with pClamp 10 software, with a sampling frequency of 10 kHz and a filtering frequency of 2 kHz. After the whole-cell recording was obtained, the cells were clamped at −80 mV, and the step voltage evoking hERG potassium current (I hERG) was changed from −80 mV to +20 mV by giving a 2 s depolarization voltage and then repolarized to −50 mV for 1 s, and returned to −80 mV. Such voltage stimulation was given every 10 s, and the administration process was started after it was determined that the hERG potassium currents were stable (1 min). The compound at each test concentration was given at least 1 min, and at least 2 cells (n≥2) were tested for each concentration.
Data analysis was performed by means of pClamp 10 and GraphPad Prism 5.0 software.
The formula for calculating the degree of inhibition of different compound concentrations on hERG potassium currents (the hERG tail current peak value evoked at −50 mV) was:
Y=Bottom+(Top−Bottom)/(1+10^((LogIC50−X)*HillSlope))
wherein X is a Log value of a test concentration of a test sample, Y is the inhibition percentage at a corresponding concentration, and Bottom and Top are the minimum inhibition percentage and the maximum inhibition percentage, respectively.
[4] abbreviates: read-out: hERG inhibitory activity IC50, CHO-hERG cells, whole-cell patch clamp, tail current at -50 mV.

Like-named read-outs stand apart in the source and are kept apart here. Some results are limits rather than exact numbers.

T1 sequence (P28223 whole entry): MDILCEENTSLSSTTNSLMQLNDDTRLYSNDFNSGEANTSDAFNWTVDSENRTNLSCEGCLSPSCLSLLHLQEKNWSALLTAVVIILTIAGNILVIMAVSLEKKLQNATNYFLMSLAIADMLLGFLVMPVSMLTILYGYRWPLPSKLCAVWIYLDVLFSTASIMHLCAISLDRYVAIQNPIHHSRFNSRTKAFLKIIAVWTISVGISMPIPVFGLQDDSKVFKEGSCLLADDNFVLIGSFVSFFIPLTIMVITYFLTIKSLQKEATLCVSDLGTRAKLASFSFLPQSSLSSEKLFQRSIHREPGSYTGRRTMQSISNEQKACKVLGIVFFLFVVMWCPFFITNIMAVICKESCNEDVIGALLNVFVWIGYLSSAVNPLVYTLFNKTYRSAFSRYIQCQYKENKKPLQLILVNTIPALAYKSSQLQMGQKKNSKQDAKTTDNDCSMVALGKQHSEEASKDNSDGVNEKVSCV
Sequence of hERG potassium channels (Q12809 whole entry): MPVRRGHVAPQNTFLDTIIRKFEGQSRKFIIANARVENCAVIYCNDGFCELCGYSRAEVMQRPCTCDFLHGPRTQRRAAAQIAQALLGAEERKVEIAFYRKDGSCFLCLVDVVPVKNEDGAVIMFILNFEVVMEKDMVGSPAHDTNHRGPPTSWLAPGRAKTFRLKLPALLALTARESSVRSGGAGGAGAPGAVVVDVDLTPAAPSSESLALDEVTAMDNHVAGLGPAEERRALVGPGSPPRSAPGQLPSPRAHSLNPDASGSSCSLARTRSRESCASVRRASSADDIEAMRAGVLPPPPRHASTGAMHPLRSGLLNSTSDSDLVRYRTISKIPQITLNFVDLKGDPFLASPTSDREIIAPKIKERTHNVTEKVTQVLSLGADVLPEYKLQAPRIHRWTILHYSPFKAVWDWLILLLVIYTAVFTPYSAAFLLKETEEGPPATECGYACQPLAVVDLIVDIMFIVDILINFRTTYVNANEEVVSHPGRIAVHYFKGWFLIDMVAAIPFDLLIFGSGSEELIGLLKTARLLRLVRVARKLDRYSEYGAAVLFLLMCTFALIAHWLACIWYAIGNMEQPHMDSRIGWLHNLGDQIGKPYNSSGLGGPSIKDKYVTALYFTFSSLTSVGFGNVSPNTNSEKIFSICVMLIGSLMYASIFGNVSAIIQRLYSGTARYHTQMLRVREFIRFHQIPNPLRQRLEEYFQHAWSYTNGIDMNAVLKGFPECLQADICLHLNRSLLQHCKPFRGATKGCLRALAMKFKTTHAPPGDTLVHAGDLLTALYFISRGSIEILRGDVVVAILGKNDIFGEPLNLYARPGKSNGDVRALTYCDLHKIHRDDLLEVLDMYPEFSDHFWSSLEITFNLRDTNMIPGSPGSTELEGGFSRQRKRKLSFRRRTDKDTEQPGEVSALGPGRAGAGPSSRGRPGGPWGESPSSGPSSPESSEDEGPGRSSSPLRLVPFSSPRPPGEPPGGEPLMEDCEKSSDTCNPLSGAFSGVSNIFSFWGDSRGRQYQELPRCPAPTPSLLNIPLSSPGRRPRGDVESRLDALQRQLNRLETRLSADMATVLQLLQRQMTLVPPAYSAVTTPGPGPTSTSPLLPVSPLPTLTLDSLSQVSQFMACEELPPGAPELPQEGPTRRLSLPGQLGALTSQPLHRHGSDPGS

Consider `CN1CCC(N(Cc2ccc(F)cn2)C(=O)NCc2cc(Br)c3c(c2)CC(C)(C)O3)CC1` [Compound 77], for which the half-inhibitory concentration (IC50) in data set [1] stood at 6.44 nM; in data set [2], 6.59 nM.
As for `CCOc1ccc(CNC(=O)N(Cc2ccc(F)cn2)C2CCN(C)CC2)cc1` [Compound 49], the values for the concentration for half-maximal inhibition (IC50) in data set [1], in data set [2] and in data set [3] (setting [4]) were 7.3 nM, 4.1 nM and 2430 nM, respectively.
Regarding `CN1CCC(N(Cc2ccc(F)cn2)C(=O)NCc2ccc(O)cc2)CC1` [Compound 3], the values for the IC50 in data set [2] and in data set [3] (setting [4]) were 11.6 nM and > 10000 nM, respectively.
With `CC(C)COc1ccc(CNC(=O)N(Cc2ccc(F)cc2)C2CCN(C)CC2)cn1` [Compound 20], the IC50 in data set [2] came to 9.14 nM; in data set [3] (setting [4]), 680 nM.
With `CN1CCC(N(Cc2ccc(F)cn2)C(=O)NCc2ccc(OCC(F)(F)F)c(F)c2)CC1` [Compound 26], the concentration for half-maximal inhibition (IC50) in data set [1] was 9.79 nM; in data set [2] it was 6.86 nM; in data set [3] (setting [4]), 530 nM.
As for `CN1CCC(N(Cc2ccc(F)cn2)C(=O)NCc2ccc3c(c2)CCC(C)(C)O3)CC1` [Compound 98], the IC50 worked out at 21.2 nM in data set [2] and 1460 nM in data set [3] (setting [4]).
Regarding `CCN1CCC(N(Cc2ccc(F)cn2)C(=O)NCc2ccc(OCC(F)(F)F)cc2)CC1` [Compound 70], the half-inhibitory concentration (IC50) in data set [1] was determined as 12.3 nM; in data set [2] it was 8.09 nM; in data set [3] (setting [4]) it was 500 nM.
On to `CN1CCC(N(Cc2ccc(F)cn2)C(=O)NCc2ccc(OC(C)(C)C)cc2)CC1` [Compound 18], for which the 50% inhibitory concentration (IC50) in data set [1] was 1.12 nM; in data set [2], 5.75 nM; in data set [3] (setting [4]), 850 nM.
The molecule `CN1CCC(N(Cc2ccc(F)cn2)C(=O)NCc2ccc(OC(F)(F)C(F)(F)F)cc2)CC1` [Compound 38] displayed an IC50 in data set [1] of 10 nM.
On to `CC(C)C(O)Cc1ccc(CNC(=O)N(Cc2ccc(F)cc2)C2CCN(C)CC2)cc1` (stereo not drawn) [Compound 25], for which the IC50 in data set [1] was 16.9 nM; in data set [2] it was 6.73 nM; in data set [3] (setting [4]), 1030 nM.
On to `CN1CCC(N(Cc2ccc(F)cn2)C(=O)NCc2cc(Cl)c3c(c2)CC(C)(C)O3)CC1` [Compound 71], for which the IC50 in data set [2] was 9.52 nM; in data set [3] (setting [4]), 3320 nM.
Regarding `CC(C)COc1ccc(CNC(=O)N(CCCN(C)C)Cc2ccc(F)cc2)cc1` [Compound 14], the 50% inhibitory concentration (IC50) in data set [2] is 2.17 nM.
Regarding `CC(C)COc1ccc(CNC(=O)N(Cc2ncc(F)cn2)C2CCN(C)CC2)cc1` [Compound 13], the results for the concentration for half-maximal inhibition (IC50) in data set [2] and in data set [3] (setting [4]) were 1.92 nM and 1300 nM, respectively.
`CCN1CCC(N(Cc2ccc(F)cn2)C(=O)NCc2ccc3c(c2)CC(C)(C)O3)CC1` [Compound 48]: the 50% inhibitory concentration (IC50) in data set [1] stood at 22.5 nM; in data set [2], 3.14 nM; in data set [3] (setting [4]), 2400 nM.
The matching figures for `CN1CCC(N(Cc2ccc(F)cn2)C(=O)NCc2ccc(OCC(F)F)cc2)CC1` [Compound 78]: 6.01 nM, 2.17 nM and 1740 nM.
For the molecule `CN1CCC(N(Cc2ccc(F)cc2)C(=O)NCc2ccc(OCC(F)(F)F)cc2)CC1` [Compound 65], the IC50 in data set [1] was found to be 18.4 nM; in data set [2] it was 7.98 nM; in data set [3] (setting [4]) it was 670 nM.
As for `CN1CCC(N(Cc2ccc(F)cc2)C(=O)NCc2ccc(OCCF)cc2)CC1` [Compound 56], the concentration for half-maximal inhibition (IC50) in data set [1] came out at 9.9 nM; in data set [2] it was 5.77 nM.
Take `CN1CCC(N(Cc2ccc(F)cn2)C(=O)NCc2ccc(OCCF)cc2)CC1` [Compound 60]: the IC50 in data set [1] was 16.4 nM; in data set [2], 2.11 nM; in data set [3] (setting [4]), > 10000 nM.
For `CN1CCC(N(Cc2ncc(F)cc2F)C(=O)NCc2ccc3c(c2)CC(C)(C)O3)CC1` [Compound 61] the same measures were 31.2 nM, 3.32 nM and 2550 nM.
Consider `CN1CCC(N(Cc2ncc(F)cc2F)C(=O)NCc2ccc(OCCC(F)F)cc2)CC1` [Compound 93], for which the values for the half-maximal inhibitory concentration (IC50) in data set [1] and in data set [2] were 10.6 nM and 4.26 nM, respectively.
Take `CN1CCC(N(Cc2ccc(F)cn2)C(=O)NCc2ccc(OCCCC(F)F)cc2)CC1` [Compound 94]: the concentration for half-maximal inhibition (IC50) in data set [1] is 7.59 nM; in data set [2], 4.29 nM.
For `CN1CCC(N(Cc2ncc(F)cc2F)C(=O)NCc2ccc(OCCCC(F)F)cc2)CC1` [Compound 95] the same measures were 27.9 nM and 5.13 nM.
Regarding `CC(C)C1Cc2cc(CNC(=O)N(Cc3ccc(F)cn3)C3CCN(C)CC3)ccc2O1` (stereo not drawn) [Compound 41], the concentration for half-maximal inhibition (IC50) was 4.29 nM in data set [1], 9.98 nM in data set [2] and 790 nM in data set [3] (setting [4]).
Consider `CC(C)COc1ccc(CNC(=O)N(Cc2ccc(F)cn2)C2CCN(C)CC2)nc1` [Compound 96], for which the half-maximal inhibitory concentration (IC50) in data set [1] stood at 26.4 nM; in data set [2], 11.4 nM.
Take `CC(C)COc1ccc(CNC(=O)N(Cc2ccc(F)cn2)C2CCN(C)CC2)cc1` [Compound 1]: the figures for the IC50 in data set [1], in data set [2] and in data set [3] (setting [4]) were 22.8 nM, 8.64 nM and 410 nM, respectively.
The matching figures for `CN1CCC(N(Cc2ccc(F)cn2)C(=O)NCc2ccc3c(c2)C=CC(C)(C)O3)CC1` [Compound 99]: 33.3 nM, 17.3 nM and 650 nM.
With `CN1CCC(N(Cc2ccc(F)cn2)C(=O)NCc2ccc(OCCCC(F)(F)F)cc2)CC1` [Compound 82], the IC50 in data set [1] is 1.95 nM; in data set [2], 3.78 nM; in data set [3] (setting [4]), 500 nM.
Turning to `CN1CCC(N(Cc2ccc(F)cc2F)C(=O)NCc2ccc(OCC(F)F)cc2)CC1` [Compound 74], the half-inhibitory concentration (IC50) in data set [2] is 8.95 nM.
In the case of `CN1CCC(N(Cc2ccc(F)cn2)C(=O)NCc2ccc3c(c2)CCO3)CC1` [Compound 46], the IC50 amounted to 11.1 nM in data set [1], 4.15 nM in data set [2] and 10400 nM in data set [3] (setting [4]).
With `CC(C)c1cc2cc(CNC(=O)N(Cc3ccc(F)cn3)C3CCN(C)CC3)ccc2o1` [Compound 50], the IC50 was found to be 20.9 nM in data set [2] and 550 nM in data set [3] (setting [4]).
With `CN1CCC(N(Cc2ccc(F)cn2)C(=O)NCc2ccc(OCCCF)cc2)CC1` [Compound 17], in data set [3], the IC50 was found to be 1550 nM.
Take `CC(C)COc1ccc(CNC(=O)N(Cc2ccc(F)cn2)C2CCN(CC3CCCCC3)CC2)cc1` [Compound 63]: in data set [1], the IC50 came out at 20.8 nM.
`CC(C)OCc1ccc(CNC(=O)N(Cc2ccc(F)cn2)C2CCN(C)CC2)cc1` [Compound 37]: the IC50 is 42.8 nM in data set [1], 2.05 nM in data set [2] and 3990 nM in data set [3] (setting [4]).
With `CC(C)COc1ccc(CNC(=O)N(Cc2ccc(F)nn2)C2CCN(C)CC2)cc1` [Compound 91], the values for the IC50 in data set [2] and in data set [3] (setting [4]) were 14.7 nM and 580 nM, respectively.
On to `CN1CCC(N(Cc2ccc(F)cn2)C(=O)NCc2ccc(OCCC(F)F)cc2)CC1` [Compound 92], for which the IC50 in data set [1] was determined as 6.54 nM; in data set [2], 4.64 nM.
With `CN1CCC(N(Cc2ccc(F)cn2)C(=O)NCc2ccc(OCC(C)(C)F)cc2)CC1` [Compound 47], the IC50 in data set [1] was 9.22 nM; in data set [2], 3.13 nM; in data set [3] (setting [4]), 1390 nM.
For `CN1CCC(N(Cc2ccc(F)cc2)C(=O)NCc2ccc3c(c2)CC(C)(C)O3)CC1` [Compound 31] the same measures were 30 nM, 17.4 nM and 1850 nM.
For `CC(C)OCc1ccc(CNC(=O)N(Cc2ccc(F)cc2)C2CCN(C)CC2)cc1` [Compound 21] the same measures were 34.1 nM, 2.1 nM and 910 nM.
For `CN1CCC(N(Cc2ccc(F)cn2)C(=O)NCc2ccc(OCCC(F)(F)F)cc2)CC1` [Compound 55] the same measures were 2.23 nM, 4.7 nM and 690 nM.
In the case of `CN1CCC(N(Cc2ccc(F)cc2F)C(=O)NCc2ccc3c(c2)CC(C)(C)O3)CC1` [Compound 76], in data set [2], the IC50 was 20.7 nM.
For `CC(C)CCc1ccc(CNC(=O)N(Cc2ccc(F)cn2)C2CCN(C)CC2)cc1` [Compound 52], the IC50 in data set [1] turned out to be 42.7 nM.
Regarding `CN1CCC(N(Cc2ccc(F)cc2)C(=O)NCc2ccc(OCC(F)F)cc2)CC1` [Compound 57], the concentration for half-maximal inhibition (IC50) is 6.83 nM in data set [1] and 6.41 nM in data set [2].
On to `CN1CCC(N(Cc2ccc(F)cn2)C(=O)NCc2ccc(OCCCCF)cc2)CC1` [Compound 62], for which the concentration for half-maximal inhibition (IC50) amounted to 32.8 nM in data set [1], 2.35 nM in data set [2] and 1430 nM in data set [3] (setting [4]).
For `CN1CCC(N(Cc2ncc(F)cc2F)C(=O)NCc2ccc(OC(C)(C)C)cc2)CC1` [Compound 81] the same measures were 30.1 nM, 2.78 nM and 680 nM.
On to `CN1CCC(N(Cc2ccc(F)cc2F)C(=O)NCc2ccc(OCCF)cc2)CC1` [Compound 75], for which the concentration for half-maximal inhibition (IC50) in data set [1] is 14.4 nM; in data set [2], 8.35 nM.
